Measurements published in paper PMC4513132, “Oxidation of Monolignols by Members of the Berberine Bridge Enzyme Family Suggests a Role in Plant Cell Wall Metabolism” (The Journal of Biological Chemistry, 2015).

Legend:
[1] = biological target: T1, AtBBE-like 15 (Arabidopsis thaliana, UniProt O64743); experiment: Thermofluor, SYPRO Orange; type: binding; details: 50 mM MES pH 7.0, 2 mg/ml ligand
T1 construct: gene MEE23; secreted by Komagataella pastoris (codon-optimised synthetic gene); crystallised as 27-532; bicovalent FAD (His-115, Cys-179)

[2] = biological target: T1, AtBBE-like 15; experiment: X-ray crystal structure, […] Å; type: binding; details: covalent (bicovalent: His-115 to 8α-methyl, Cys-179 to C6)
[3] = biological target: T2, AtBBE-like 13 (Arabidopsis thaliana, UniProt Q93ZA3); experiment: stopped-flow reductive half-reaction, flavin absorbance at […] nm; type: biochemical; details: 50 mM potassium phosphate pH 7.0, 25 °C, anoxic
T2 construct: gene At1g30760; isolated from Komagataella pastoris cells (codon-optimised synthetic gene)

[4] = biological target: T1, AtBBE-like 15; experiment: as above; type: biochemical; details: 50 mM potassium phosphate pH 7.0, 25 °C, anoxic

T1 sequence (O64743 27-532): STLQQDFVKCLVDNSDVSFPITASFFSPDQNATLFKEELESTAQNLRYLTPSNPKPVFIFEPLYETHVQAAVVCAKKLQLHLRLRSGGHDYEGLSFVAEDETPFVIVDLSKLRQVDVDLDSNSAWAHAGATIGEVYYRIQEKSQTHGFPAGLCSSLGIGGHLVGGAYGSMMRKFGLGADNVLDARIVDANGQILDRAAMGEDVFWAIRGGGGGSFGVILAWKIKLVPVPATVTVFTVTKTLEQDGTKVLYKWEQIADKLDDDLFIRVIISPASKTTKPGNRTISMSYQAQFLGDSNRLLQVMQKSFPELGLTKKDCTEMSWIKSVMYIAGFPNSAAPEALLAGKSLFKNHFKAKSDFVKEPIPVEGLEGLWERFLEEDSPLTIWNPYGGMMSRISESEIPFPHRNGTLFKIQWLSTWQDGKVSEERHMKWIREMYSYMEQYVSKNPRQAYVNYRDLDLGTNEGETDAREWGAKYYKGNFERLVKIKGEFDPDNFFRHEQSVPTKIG
T2 sequence (Q93ZA3 31-534): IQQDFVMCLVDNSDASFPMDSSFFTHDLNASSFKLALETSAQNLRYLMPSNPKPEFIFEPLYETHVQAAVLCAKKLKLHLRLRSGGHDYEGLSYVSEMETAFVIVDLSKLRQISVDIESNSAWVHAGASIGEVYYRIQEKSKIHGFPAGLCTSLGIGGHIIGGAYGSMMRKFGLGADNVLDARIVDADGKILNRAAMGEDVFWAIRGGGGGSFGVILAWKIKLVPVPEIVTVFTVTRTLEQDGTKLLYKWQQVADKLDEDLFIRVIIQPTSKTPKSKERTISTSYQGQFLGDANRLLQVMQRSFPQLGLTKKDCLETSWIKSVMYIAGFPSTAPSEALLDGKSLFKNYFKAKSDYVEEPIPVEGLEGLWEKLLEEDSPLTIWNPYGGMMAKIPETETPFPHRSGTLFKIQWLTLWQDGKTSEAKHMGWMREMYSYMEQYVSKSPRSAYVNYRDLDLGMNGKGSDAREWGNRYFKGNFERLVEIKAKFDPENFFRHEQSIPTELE

| Kd [3] [µM] | Kd [4] [µM] | SMILES | increase of the melting temperature [1] | X-ray crystal structure, 2.1 Å [2] |
| --- | --- | --- | --- | --- |
|  |  | OC[C@H]1OC(O)[C@H](O)[C@@H](O)[C@@H]1O (stereo partly drawn) [D-glucose] | monosaccharides, such as D-glucose, had such a profound effect on the protein's thermal stability |  |
|  |  | Cc1cc2nc3c(=O)[nH]c(=O)nc-3n(C[C@H](O)[C@H](O)[C@H](O)COP(=O)(O)OP(=O)(O)OC[C@H]3O[C@@H](n4cnc5c(N)ncnc54)[C@H](O)[C@@H]3O)c2cc1C [FAD] |  | The FAD cofactor is bicovalently linked to the peptide chain |
| 1860 ± 624 | 660 ± 100 | COc1cc(/C=C/CO)ccc1O[C@@H]1O[C@H](CO)[C@@H](O)[C@H](O)[C@H]1O [coniferin] |  |  |
| 867 ± 123 | 700 ± 120 | OC/C=C/c1ccc(O)cc1 [p-coumaryl alcohol] |  |  |
